From patent US20230096028A1, “BICYCLIC HETEROCYCLYL COMPOUNDS AND USES THEREOF” (Revolution Medicines, Inc., priority 2019, published 2023)
pIC50, pKd: −log10 of the molar value.

Legend:
[1] = test system: PC-9 cells (EGFR Ex19Del); test: Potency Assay: pERK (SOS1 pERK IC50 Assay, AlphaLISA SureFire Ultra p-ERK1/2); type: cell-based; conditions: Homo sapiens; PC-9 cells (EGFR Ex19Del), 1 hour incubation, AlphaLISA p-ERK1/2; read-out: SOS1 pERK IC50
Summary of the method: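 PC-9 (EGFR Ex19Del) cells plated overnight, then treated 1 h at 37° C. with 10-point 3-fold dilutions (top 10 μM final) in duplicate. Lysate pERK1/2 measured by AlphaLISA SureFire Ultra; IC50 from 4-parameter sigmoidal fit.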

[2] = target: T1, SOS1 catalytic domain (residues 564-1049) (Homo sapiens, UniProt Q07889); test: Potency Assay: binding affinity to SOS1 using Surface Plasmon Resonance (SPR); set-up: SOS1 catalytic domain (residues 564-1049) immobilized on a sensor chip; conditions: immobilized SOS1 catalytic domain (residues 564-1049), read-out: SOS1 SPR Equilibrium Kd
T1 sequence (Q07889 564-1049): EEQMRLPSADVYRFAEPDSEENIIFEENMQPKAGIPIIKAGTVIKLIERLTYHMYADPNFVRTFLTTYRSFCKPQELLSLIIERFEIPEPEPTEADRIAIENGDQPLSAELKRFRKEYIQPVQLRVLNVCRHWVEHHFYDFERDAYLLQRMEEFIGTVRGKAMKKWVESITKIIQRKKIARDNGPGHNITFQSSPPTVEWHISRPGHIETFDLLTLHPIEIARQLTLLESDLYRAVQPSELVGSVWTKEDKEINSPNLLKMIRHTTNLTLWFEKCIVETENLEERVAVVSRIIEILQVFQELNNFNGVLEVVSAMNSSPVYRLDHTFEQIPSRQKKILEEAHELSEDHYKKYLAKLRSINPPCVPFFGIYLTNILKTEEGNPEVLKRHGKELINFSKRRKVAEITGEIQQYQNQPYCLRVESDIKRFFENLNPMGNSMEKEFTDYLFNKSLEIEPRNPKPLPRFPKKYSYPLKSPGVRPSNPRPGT
Summary of the method: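 Avi-tagged SOS1 catalytic domain captured on streptavidin chip (~6000 RU) in 0.01 M HEPES, 0.15 M NaCl, 0.05% P20. Compound dilution series flowed at 50 μL/min for association, then buffer for dissociation, with double reference subtraction. Kd derived from end-of-association binding response plotted against concentration.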

[3] = target: T1, SOS1 catalytic domain (residues 564-1049); test: Mode of Action Assay: inhibition of SOS1 nucleotide exchange activity (SOS1 TR-FRET IC50 Assay)

pIC50 [1] | pKd [2] | pIC50 [3] | Compound
< 6.00 | > 6.40 | > 6.00 | C[C@@H](Nc1nc(Cl)nc2c1CN(C(=O)C1CCNCC1F)C2)c1cccc(C(F)F)c1F (stereo partly drawn) [Example 305]
> 6.00 | > 6.40 | > 6.00 | C[C@@H](Nc1nc(Cl)nc2c1CN(C(=O)[C@H]1CCOC[C@H]1N)C2)c1cccc(C(F)F)c1F [Example 306]
> 6.00 | > 6.40 | > 6.00 | C[C@@H](Nc1nc(Cl)nc2c1CN(C(=O)[C@H]1CNCCO1)C2)c1cccc(C(F)F)c1F [Example 307]
> 6.00 | > 6.40 | > 6.00 | C[C@@H](Nc1nc(Cl)nc2c1CN(C(=O)[C@@H]1COCCN1)C2)c1cccc(C(F)F)c1F [Example 309]
> 6.00 | > 6.40 | > 6.00 | COC1(C(=O)N2Cc3nc(Cl)nc(N[C@H](C)c4cccc(C(F)F)c4F)c3C2)CCNCC1 [Example 310]
> 6.00 | > 6.40 | > 6.00 | C[C@@H](Nc1nc(Cl)nc2c1CN(C(=O)C1CCNCC1(F)F)C2)c1cccc(C(F)F)c1F (stereo partly drawn) [Example 311]
> 6.00 | > 6.40 | > 6.00 | C[C@@H](Nc1nc(Cl)nc2c1CN(C(=O)C13CCN(CC1)C3)C2)c1cccc(C(F)F)c1F [Example 312]
< 6.00 | > 6.40 | > 6.00 | C[C@@H](Nc1nc(Cl)nc2c1CN(C(=O)C1(C)CCNCC1)C2)c1cccc(C(F)(F)F)c1 [Example 314]
> 6.00 | > 6.40 | > 6.00 | COC1(C(=O)N2Cc3nc(Cl)nc(N[C@H](C)c4cccc(C(F)(F)F)c4)c3C2)CCNCC1 [Example 315]
> 6.00 | > 6.40 | > 6.00 | COC1(C(=O)N2Cc3nc(Cl)nc(N[C@H](C)c4cccc(C(F)(F)F)c4)c3C2)CNC1 [Example 316]
< 6.00 | > 6.40 | > 6.00 | C[C@@H](Nc1nc(Cl)nc2c1CN(C(=O)C1CCN3CCOCC13)C2)c1cccc(C(F)F)c1F (stereo partly drawn) [Example 318]
> 6.00 | > 6.40 | > 6.00 | C[C@@H](Nc1nc(Cl)nc2c1CN(C(=O)C1CCN(C)C1)C2)c1cccc(C(F)F)c1F (stereo partly drawn) [Example 319]
> 6.00 | > 6.40 | > 6.00 | C[C@@H](Nc1nc(Cl)nc2c1CN(C(=O)C1COCCN(C)C1)C2)c1cccc(C(F)F)c1F (stereo partly drawn) [Example 320]
> 6.00 | > 6.40 | > 6.00 | C[C@@H](Nc1nc(Cl)nc2c1CN(C(=O)[C@@H]1COCCN1C)C2)c1cccc(C(F)F)c1F [Example 321]
> 6.00 | > 6.40 | > 6.00 | C[C@@H](Nc1nc(Cl)nc2c1CN(C(=O)CC1COCCN1C)C2)c1cccc(C(F)F)c1F (stereo partly drawn) [Example 322]
> 6.00 | > 6.40 | > 6.00 | COC1(C(=O)N2Cc3nc(Cl)nc(N[C@H](C)c4cccc(C(F)F)c4F)c3C2)CCN(C)CC1 [Example 323]
> 6.00 | > 6.40 | > 6.00 | COC1(C(=O)N2Cc3nc(Cl)nc(N[C@H](C)c4cccc(C(F)F)c4F)c3C2)CN(C)C1 [Example 324]
> 6.00 | > 6.40 | > 6.00 | COC1(C(=O)N2Cc3nc(Cl)nc(N[C@H](C)c4cccc(C(F)F)c4F)c3C2)CCN(C2COC2)CC1 [Example 325]
> 6.00 | > 6.40 | > 6.00 | C[C@@H](Nc1nc(Cl)nc2c1CN(C(=O)C1(F)CCN(C)CC1)C2)c1cccc(C(F)F)c1F [Example 326]
> 6.00 | > 6.40 | > 6.00 | C[C@@H](Nc1nc(Cl)nc2c1CN(C(=O)C1(C)CCN(C3COC3)CC1)C2)c1cccc(C(F)F)c1F [Example 327]
> 6.00 | > 6.40 | > 6.00 | C[C@@H](Nc1nc(Cl)nc2c1CN(C(=O)C1(C#N)CNC1)C2)c1cccc(C(F)F)c1F [Example 328]

pIC50 [1] | pKd [2] | pIC50 [3] | Compound
> 6.00 | > 6.40 | > 6.00 | C[C@@H](Nc1nc(Cl)nc2c1CN(C(=O)C1(F)CN(C3COC3)C1)C2)c1cccc(C(F)F)c1F [Example 329]
> 6.00 | > 6.40 | > 6.00 | COC1(C(=O)N2Cc3nc(Cl)nc(N[C@H](C)c4cccc(C(F)F)c4F)c3C2)CCOCC1 [Example 330]
> 6.00 | > 6.40 | > 6.00 | C[C@@H](Nc1nc(Cl)nc2c1CN(C(=O)C1(F)CCN(C3COC3)CC1)C2)c1cccc(C(F)F)c1F [Example 331]
< 6.00 | < 6.40 | > 6.00 | CC(=O)NC1(C(=O)N2Cc3nc(Cl)nc(N[C@H](C)c4cccc(C(F)F)c4F)c3C2)CCCCC1 [Example 332]
> 6.00 | > 6.40 | > 6.00 | CNC1(C(=O)N2Cc3nc(Cl)nc(N[C@H](C)c4cccc(C(F)F)c4F)c3C2)CCOCC1 [Example 333]
> 6.00 | > 6.40 | > 6.00 | CNC1(C(=O)N2Cc3nc(Cl)nc(N[C@H](C)c4cccc(C(F)F)c4F)c3C2)CCOC1 (stereo partly drawn) [Example 334]
> 6.00 | > 6.40 | > 6.00 | C[C@@H](Nc1nc(Cl)nc2c1CN(C(=O)C1(C)CN(C3COC3)C1)C2)c1cccc(C(F)F)c1F [Example 335]
< 6.00 | > 6.40 | > 6.00 | C[C@@H](Nc1nc(Cl)nc2c1CN(C(=O)C1CCN(C3COC3)CC1)C2)c1cccc(C(F)F)c1F [Example 336]
< 6.00 | > 6.40 | > 6.00 | C[C@@H](Nc1nc(Cl)nc2c1CN(C(=O)C1(C#N)CN(C)C1)C2)c1cccc(C(F)F)c1F [Example 337]
> 6.00 | > 6.40 | > 6.00 | CC(C)N1CC(C)(C(=O)N2Cc3nc(Cl)nc(N[C@H](C)c4cccc(C(F)F)c4F)c3C2)C1 [Example 338]
> 6.00 | > 6.40 | > 6.00 | C[C@@H](Nc1nc(Cl)nc2c1CN(C(=O)C1CN(C3COC3)C1)C2)c1cccc(C(F)F)c1F [Example 339]
> 6.00 | > 6.40 | > 6.00 | COC1(C(=O)N2Cc3nc(Cl)nc(N[C@H](C)c4cccc(C(F)F)c4F)c3C2)CN(C2COC2)C1 [Example 340]
> 6.00 | > 6.40 | > 6.00 | C[C@@H](Nc1nc(Cl)nc2c1CN(C(=O)C1(C)CCN(C3COC3)C1)C2)c1cccc(C(F)F)c1F (stereo partly drawn) [Example 341]
> 6.00 | > 6.40 | > 6.00 | C[C@@H](Nc1nc(Cl)nc2c1CN(C(=O)C1(C)CN(CCF)C1)C2)c1cccc(C(F)F)c1F [Example 342]
> 6.00 | > 6.40 | > 6.00 | COC1(C(=O)N2Cc3nc(Cl)nc(N[C@H](C)c4cccc(C(F)F)c4F)c3C2)CCN(CCF)CC1 [Example 343]
> 6.00 | > 6.40 | > 6.00 | COC1(C(=O)N2Cc3nc(Cl)nc(N[C@H](C)c4cccc(C(F)F)c4F)c3C2)CCN(CC(F)(F)F)CC1 [Example 344]
< 6.00 | > 6.40 | > 6.00 | C[C@@H](Nc1nc(CO)nc2c1CN(C(=O)N1CCOCC1)C2)c1cccc(C(F)F)c1F [Example 348, (R)-(4-((1-(3-(difluoromethyl)-2-fluorophenyl)ethyl)amino)-2-(hydroxymethyl)-5,7-dihydro-6H-pyrrolo[3,4-d]pyrimidin-6-yl)(morpholino)methanone]
> 6.00 | > 6.40 | > 6.00 | COC1(C(=O)N2Cc3nc(CN)nc(N[C@H](C)c4cccc(C(F)(F)F)c4)c3C2)CCOCC1 [Example 350, (R)-(2-(aminomethyl)-4-((1-(3-(trifluoromethyl)phenyl)ethyl)amino)-5,7-dihydro-6H-pyrrolo[3,4-d]pyrimidin-6-yl)(4-methoxytetrahydro-2H-pyran-4-yl)methanone]
> 6.00 | > 6.40 | > 6.00 | C[C@@H](Nc1nc(Cl)nc2c1CN(C(=O)N1CCNc3ncncc31)C2)c1cc(N)cc(C(F)(F)F)c1 [Example 354]
< 6.00 | > 6.40 | > 6.00 | C[C@@H](Nc1nc(Cl)nc2c1CN(C(=O)N1CCN(C)CC1)C2)c1cccc(C(F)(F)CO)c1 [Example 355]

Compound | pIC50 [1] | pKd [2] | pIC50 [3]
C[C@@H](Nc1nc(Cl)nc2c1CN(C(=O)C13CCN(CC1)CC3)C2)c1cccc(C(F)F)c1F [Example 313] | > 6.00 | > 6.40 | > 6.00
